Common to all, as to test: Comparison of activities of polymyxins B and F, MIC
Common to all, as to assay type: cell-based

One assay relates to Escherichia coli SC8600. Conditions: Polymyxin-resistant variant of E. coli SC8599. The text has this:
(§1) *Organisms from the Squibb Culture Collection.
^a Polymyxin-resistant variant of E. coli SC8599

The test system of a further assay is Escherichia coli SC9253. Conditions: Polymyxin-resistant variant of E. coli SC9251.
From the text: as §1
(§2) ^b Polymyxin-resistant variants of E. coli SC9251

A further assay deals with Escherichia coli SC9252. Particulars: Polymyxin-resistant variant of E. coli SC9251.
From the text: as §1, §2

The test system of another assay is Escherichia coli SC8599. Conditions: E. coli SC8599.
From the text: as §1

A further assay concerns Escherichia coli SC9251. Particulars: E. coli SC9251.
From the text: as §1

One may read the MIC as the lowest concentration that inhibits growth of the organism. As for Polymyxin B, the MIC was over 100 µg/mL in the assay with Escherichia coli SC8600; 50.0 µg/mL against Escherichia coli SC9253; 18.7 µg/mL with Escherichia coli SC9252; 0.1 µg/mL in the assay with Escherichia coli SC8599; 0.06 µg/mL against Escherichia coli SC9251.
